In patent US10273234B2, “Compounds that are S1P modulating agents and/or ATX modulating agents” (BIOGEN MA INC., priority 2012, dated 2019):

biological target: Human ATX protein (Homo sapiens (Human), UniProt Q13822); experiment: ATX biochemical FRET assay with FS-3 substrate; details: 1.0 μg/mL ATX, 2 μM FS-3, 2 hours at room temperature
From the text: ATX (Autotaxin) is a 125 KDa glycoprotein with lysophospholipase D (LPLD) activity that generates the bioactive lipid lysophosphatidic acid (LPA) from lysophosphatidylcholine (LPC). The ATX biochemical assay utilizes a FRET (fluorescence resonance energy transfer) technology platform. The fluorescence signal of FRET substrate FS-3 is quenched due to intra-molecular FRET of a fluorophore to a non-fluorescing quencher (Ferguson, C. G., et al., Org Lett. 2006 May 11; 8(10): 2023-2026, which is incorporated by reference in its entirety). ATX catalyzes the hydrolysis of the substrate which separates the dabsyl quencher from the fluorescein reporter, which becomes fluorescent. The reaction is monitored by a SpectraMax M5 (Molecular Devices, Sunnyvale, Calif.) with at excitation wavelength 485 nm and emission wavelength […].
2×ATX assay buffer: 100 mM Tris, 280 mM NaCl, 10 mM KCl, 2 mM CaCl2, 2 mM MgCl2, pH 7.4.
Human ATX protein: expressed and purified in house. Stored at −80° C.
Substrate FS-3 (Echelon, L-2000): 100 μg in 77.74 μL H2O (1 mM stock), stored at −20° C.
Compound dilution—All compounds were provided at 10 mM in 100% DMSO. In the first well, 2 μL of 10 mM compound was added to 78 μL of DMSO (1:40 dilution). In subsequent wells 3-fold dilution (total 10 dilutions) were performed.
1×ATX assay buffer was made up with a final concentration of 1 mg/mL fatty acid free-BSA using 2×ATX assay buffer, 10 mg/ml fatty acid free-BSA and ddH2O.
ATX protein was diluted with 1×ATX assay buffer to a concentration of 1.32 μg/mL (1.32×). 38 μL was added per well to the assay plate. The final concentration of ATX in the reaction as 1.0 μg/mL.
2 μL per well of compounds was transferred to provide the desired concentration. The plate was centrifuged, then incubated at room temperature for 30 minutes on the shaker.
FS-3 was diluted with 1×ATX assay buffer to a concentration of FS-3 of 10 μM (5×). Then, 10 μL was added per well to the assay plate. The final concentration of FS-3 in the reaction was 2 μM. The plate was centrifuged. The plate was kept shaking at room temperature for 2 hours. Because FS-3 substrate is light sensitive, plates were kept covered and protected from light.
Fluorescence was measured using SpectraMax M5 (excitation at 485 nm/emission at 538 nm, top read).

| IC50 [µM] | Compound |
| --- | --- |
| 0.5 to 5 | CC1(C)C(NCc2ccc3c(O[C@H]4CC[C@H](C(C)(C)C)CC4)cccc3c2)CC1C(=O)O (stereo partly drawn) [Example 3, 3-(((5-((trans-4-(tert-butyl)cyclohexyl)oxy)naphthalen-2-yl)methyl)amino)-2,2-dimethylcyclobutanecarboxylic acid] |
| < 0.5 | CC(C)(C)[C@H]1CC[C@H](Oc2cccc3cc(CN4CC(C(=O)O)C4)ccc23)CC1 [Example 4, 1-((5-((trans-4-(tert-butyl)cyclohexyl)oxy)naphthalen-2-yl)methyl)azetidine-3-carboxylic acid] |
| 0.5 to 5 | CC(C)(C)[C@H]1CC[C@H](Oc2cccc3cc(CN4CC5CC(C(=O)O)CC5C4)ccc23)CC1 (stereo partly drawn) [Example 5, 2-((5-((trans-4-(tert-butyl)cyclohexyl)oxy)naphthalen-2-yl)methyl)octahydrocyclopenta[c]pyrrole-5-carboxylic acid] |
| 0.5 to 5 | CC(C)(C)[C@H]1CC[C@H](Oc2cccc3cc(CNC4CC(C(=O)O)C4)ccc23)CC1 (stereo partly drawn) [Example 7, 3-(((5-((trans-4-(tert-butyl)cyclohexyl)oxy)naphthalen-2-yl)methyl)amino)cyclobutanecarboxylic acid] |
| > 5 | CC(C)(C)[C@H]1CC[C@H](Oc2cccc3cc(CN4CCCC(C(=O)O)CC4)ccc23)CC1 (stereo partly drawn) [Example 8, 1-((5-((trans-4-(tert-butyl)cyclohexyl)oxy)naphthalen-2-yl)methyl)azepane-4-carboxylic acid] |
| 0.5 to 5 | O=C(O)C1CCN(Cc2ccc3c(O[C@H]4CC[C@H](C(F)(F)F)CC4)cccc3c2)CC1 [Example 9, 1-((5-((trans-4-(trifluoromethyl)cyclohexyl)oxy)naphthalen-2-yl)methyl)piperidine-4-carboxylic acid] |
| > 5 | O=C(O)C1CCN(Cc2ccc3c(O[C@H]4CC[C@@H](C(F)(F)F)CC4)cccc3c2)CC1 [Example 10, 1-((5-((cis-4-(trifluoromethyl)cyclohexyl)oxy)naphthalen-2-yl)methyl)piperidine-4-carboxylic acid] |
| > 5 | CC(C)[C@H]1CC[C@@H](Oc2cccc3cc(CN4CCC(C(=O)O)CC4)ccc23)CC1 [Example 11, 1-((5-((cis-4-isopropylcyclohexyl)oxy)naphthalen-2-yl)methyl)piperidine-4-carboxylic acid] |
| 0.5 to 5 | CC[C@H]1CC[C@@H](Oc2cccc3cc(CN4CCC(C(=O)O)CC4)ccc23)CC1 [Example 12, 1-((5-((cis-4-ethylcyclohexyl)oxy)naphthalen-2-yl)methyl)piperidine-4-carboxylic acid] |
| 0.5 to 5 | CC(C)[C@H]1CC[C@H](Oc2cccc3cc(CN4CCC(C(=O)O)CC4)ccc23)CC1 [Example 13, 1-((5-((trans-4-isopropylcyclohexyl)oxy)naphthalen-2-yl)methyl)piperidine-4-carboxylic acid] |
| 0.5 to 5 | CC[C@H]1CC[C@H](Oc2cccc3cc(CN4CCC(C(=O)O)CC4)ccc23)CC1 [Example 14, 1-((5-((trans-4-ethylcyclohexyl)oxy)naphthalen-2-yl)methyl)piperidine-4-carboxylic acid] |
| 0.5 to 5 | C[C@H]1CC[C@H](Oc2cccc3cc(CN4CCC(C(=O)O)CC4)ccc23)CC1 [Example 15, 1-((5-((trans-4-methylcyclohexyl)oxy)naphthalen-2-yl)methyl)piperidine-4-carboxylic acid] |
| > 5 | C[C@H]1CC[C@H](Oc2cccc3cc(CN4CC(C(=O)O)C4)ccc23)CC1 [Example 17, 1-((5-((trans-4-methylcyclohexyl)oxy)naphthalen-2-yl)methyl)azetidine-3-carboxylic acid] |
| > 5 | O=C(O)C1CN(Cc2ccc3c(O[C@H]4CC[C@H](c5ccccc5)CC4)cccc3c2)C1 [Example 18, 1-((5-((trans-4-phenylcyclohexyl)oxy)naphthalen-2-yl)methyl)azetidine-3-carboxylic acid] |
| 0.5 to 5 | CC[C@H]1CC[C@H](Oc2cccc3cc(CN4CC(C(=O)O)C4)ccc23)CC1 [Example 19, 1-((5-((trans-4-ethylcyclohexyl)oxy)naphthalen-2-yl)methyl)azetidine-3-carboxylic acid] |
| 0.5 to 5 | O=C(O)C1CN(Cc2ccc3c(O[C@H]4CC[C@H](C(F)(F)F)CC4)cccc3c2)C1 [Example 20, 1-((5-((trans-4-(trifluoromethyl)cyclohexyl)oxy)naphthalen-2-yl)methyl)azetidine-3-carboxylic acid] |
| > 5 | CC(C)[C@H]1CC[C@H](Oc2cccc3cc(CN4CC(C(=O)O)C4)ccc23)CC1 [Example 21, 1-((5-((trans-4-isopropylcyclohexyl)oxy)naphthalen-2-yl)methyl)azetidine-3-carboxylic acid] |
| > 5 | CCCC[C@H]1CC[C@H](Oc2cccc3cc(CN4CC(C(=O)O)C4)ccc23)CC1 [Example 22, 1-((5-((trans-4-butylcyclohexyl)oxy)naphthalen-2-yl)methyl)azetidine-3-carboxylic acid] |
| > 5 | O=C(O)C1CN(Cc2ccc3c(O[C@H]4CC[C@H](C5CCCC5)CC4)cccc3c2)C1 [Example 23, 1-((5-((trans-4-cyclopentylcyclohexyl)oxy)naphthalen-2-yl)methyl)azetidine-3-carboxylic acid] |
| < 0.5 | CC(C)(C)[C@H]1CC[C@H](Oc2cccc3cc(CN4CCC(C(=O)O)CC4)ccc23)CC1 [Example 24, 1-((5-((trans-4-(tert-butyl)cyclohexyl)oxy)naphthalen-2-yl)methyl)piperidine-4-carboxylic acid] |
| > 5 | CCCCCCCOc1cccc2cc(CN3CCC(C(=O)O)CC3)ccc12 [Example 25, 1-((5-(heptyloxy)naphthalen-2-yl)methyl)piperidine-4-carboxylic acid] |
| > 5 | C[C@H]1CC[C@@H](Oc2cccc3cc(CN4CCC(C(=O)O)CC4)ccc23)CC1 [Example 28, 1-((5-((cis-4-methylcyclohexyl)oxy)naphthalen-2-yl)methyl)piperidine-4-carboxylic acid] |

| Compound | IC50 [µM] |
| --- | --- |
| CC(C)(C)[C@H]1CC[C@H](Oc2cccc3cc(CN4C5CCC4CC(C(=O)O)C5)ccc23)CC1 (stereo partly drawn) [Example 1, 8-((5-((trans-4-(tert-butyl)cyclohexyl)oxy)naphthalen-2-yl)methyl)-8-azabicyclo[3.2.1]octane-3-carboxylic acid] | 0.5 to 5 |
| CC(C)(C)[C@H]1CC[C@H](Oc2cccc3cc(CN4C5CCCC4CC(C(=O)O)C5)ccc23)CC1 (stereo partly drawn) [Example 2, 9-((5-((trans-4-(tert-butyl)cyclohexyl)oxy)naphthalen-2-yl)methyl)-9-azabicyclo[3.3.1]nonane-3-carboxylic acid] | > 5 |
| C[C@H]1CC[C@@H](Oc2cccc3cc(CN4C5CCCC4CC(C(=O)O)C5)ccc23)CC1 (stereo partly drawn) [Example 26, 9-((5-((cis-4-methylcyclohexyl)oxy)naphthalen-2-yl)methyl)-9-azabicyclo[3.3.1]nonane-3-carboxylic acid] | 0.5 to 5 |
| C[C@H]1CC[C@@H](Oc2cccc3cc(CN4C5CCC4CC(C(=O)O)C5)ccc23)CC1 (stereo partly drawn) [Example 27, 8-((5-((cis-4-methylcyclohexyl)oxy)naphthalen-2-yl)methyl)-8-azabicyclo[3.2.1]octane-3-carboxylic acid] | 0.5 to 5 |
